Laboratory results from patent US20170320870A1 (Medical Research Council Technology, priority 2009, published 2017).

How the values were obtained:
Type in all cases: biochemical
[1] = target: each specific kinase (kinase selectivity panel, Table 2) (Homo sapiens, UniProt O14965); test: Kinase selectivity: percentage inhibition of each specific kinase at 1 μM inhibitor concentration; conditions: Aurora A
Procedure: (§1) Values are expressed as percentage inhibition of the each specific kinase at 1 μM inhibitor concentration.

[2] = target: each specific kinase (kinase selectivity panel, Table 2) (Homo sapiens, UniProt P53350); test: as above; conditions: PLK1
Procedure: as §1

[3] = target: each specific kinase (kinase selectivity panel, Table 2) (Homo sapiens, UniProt P29317); test: as above; conditions: EPH-A2
Chain of each specific kinase (kinase selectivity panel, Table 2) (Homo sapiens, UniProt P29317) (P29317 24-976): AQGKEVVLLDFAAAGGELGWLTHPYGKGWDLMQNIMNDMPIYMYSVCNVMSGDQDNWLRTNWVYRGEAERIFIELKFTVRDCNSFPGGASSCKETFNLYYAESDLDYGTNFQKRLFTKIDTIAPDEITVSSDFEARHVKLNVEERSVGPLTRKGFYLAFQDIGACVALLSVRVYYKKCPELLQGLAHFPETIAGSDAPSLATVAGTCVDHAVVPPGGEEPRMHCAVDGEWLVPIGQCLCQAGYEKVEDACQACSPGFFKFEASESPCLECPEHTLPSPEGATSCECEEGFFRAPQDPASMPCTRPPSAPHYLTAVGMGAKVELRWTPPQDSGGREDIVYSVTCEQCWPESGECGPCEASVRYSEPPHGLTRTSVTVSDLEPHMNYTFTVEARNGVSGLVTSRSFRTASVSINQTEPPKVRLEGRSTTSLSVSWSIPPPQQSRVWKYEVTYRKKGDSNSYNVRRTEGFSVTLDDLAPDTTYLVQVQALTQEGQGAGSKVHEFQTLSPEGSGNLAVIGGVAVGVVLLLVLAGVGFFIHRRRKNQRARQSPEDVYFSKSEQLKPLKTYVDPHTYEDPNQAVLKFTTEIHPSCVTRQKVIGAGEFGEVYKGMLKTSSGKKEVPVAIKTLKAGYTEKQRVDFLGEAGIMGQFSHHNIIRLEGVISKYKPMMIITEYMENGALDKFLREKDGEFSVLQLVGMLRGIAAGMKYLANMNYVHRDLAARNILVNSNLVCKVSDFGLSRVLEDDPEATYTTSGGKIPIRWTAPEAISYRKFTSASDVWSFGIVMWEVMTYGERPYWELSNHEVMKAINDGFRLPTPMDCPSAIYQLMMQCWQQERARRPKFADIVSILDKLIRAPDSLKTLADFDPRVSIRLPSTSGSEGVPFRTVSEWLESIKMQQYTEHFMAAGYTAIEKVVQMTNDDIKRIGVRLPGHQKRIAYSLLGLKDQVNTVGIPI
Procedure: as §1

[4] = target: each specific kinase (kinase selectivity panel, Table 2) (Homo sapiens, UniProt O60674); test: as above; conditions: JAK2
Chain of each specific kinase (kinase selectivity panel, Table 2) (Homo sapiens, UniProt O60674) (O60674 whole entry): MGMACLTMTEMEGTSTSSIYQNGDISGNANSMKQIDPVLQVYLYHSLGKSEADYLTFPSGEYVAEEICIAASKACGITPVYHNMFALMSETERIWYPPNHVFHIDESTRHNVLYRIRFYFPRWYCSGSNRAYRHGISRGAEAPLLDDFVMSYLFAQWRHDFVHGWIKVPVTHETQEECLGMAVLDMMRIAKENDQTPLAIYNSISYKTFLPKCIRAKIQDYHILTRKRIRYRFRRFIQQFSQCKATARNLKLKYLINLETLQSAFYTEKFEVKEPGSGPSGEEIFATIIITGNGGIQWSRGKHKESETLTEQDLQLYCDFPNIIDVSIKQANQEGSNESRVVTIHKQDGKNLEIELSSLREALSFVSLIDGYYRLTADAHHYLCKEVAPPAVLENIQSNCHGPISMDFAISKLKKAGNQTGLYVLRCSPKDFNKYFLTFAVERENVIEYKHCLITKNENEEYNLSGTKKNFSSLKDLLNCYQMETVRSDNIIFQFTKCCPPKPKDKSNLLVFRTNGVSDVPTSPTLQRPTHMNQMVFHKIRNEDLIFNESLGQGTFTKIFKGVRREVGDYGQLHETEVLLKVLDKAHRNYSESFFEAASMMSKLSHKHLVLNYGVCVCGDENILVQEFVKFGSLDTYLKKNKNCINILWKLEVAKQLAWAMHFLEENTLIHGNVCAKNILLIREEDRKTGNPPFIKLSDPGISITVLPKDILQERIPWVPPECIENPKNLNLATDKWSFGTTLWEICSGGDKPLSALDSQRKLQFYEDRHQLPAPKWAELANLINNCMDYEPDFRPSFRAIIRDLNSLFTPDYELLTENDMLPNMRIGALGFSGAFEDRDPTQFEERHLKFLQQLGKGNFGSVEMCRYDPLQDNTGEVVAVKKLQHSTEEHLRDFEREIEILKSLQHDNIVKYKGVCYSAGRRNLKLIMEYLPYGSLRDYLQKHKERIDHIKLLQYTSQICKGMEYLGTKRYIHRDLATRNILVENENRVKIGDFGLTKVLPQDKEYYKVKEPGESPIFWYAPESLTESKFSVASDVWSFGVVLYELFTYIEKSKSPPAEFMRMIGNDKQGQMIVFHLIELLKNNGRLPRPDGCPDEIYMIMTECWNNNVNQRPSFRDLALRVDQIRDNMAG
Procedure: as §1

[5] = target: each specific kinase (kinase selectivity panel, Table 2) (Homo sapiens, UniProt P33981); test: as above; conditions: TTK
Procedure: as §1

[6] = target: each specific kinase (kinase selectivity panel, Table 2) (Homo sapiens, UniProt P27361); test: as above; conditions: ERK1
Chain of each specific kinase (kinase selectivity panel, Table 2) (Homo sapiens, UniProt P27361) (P27361 whole entry): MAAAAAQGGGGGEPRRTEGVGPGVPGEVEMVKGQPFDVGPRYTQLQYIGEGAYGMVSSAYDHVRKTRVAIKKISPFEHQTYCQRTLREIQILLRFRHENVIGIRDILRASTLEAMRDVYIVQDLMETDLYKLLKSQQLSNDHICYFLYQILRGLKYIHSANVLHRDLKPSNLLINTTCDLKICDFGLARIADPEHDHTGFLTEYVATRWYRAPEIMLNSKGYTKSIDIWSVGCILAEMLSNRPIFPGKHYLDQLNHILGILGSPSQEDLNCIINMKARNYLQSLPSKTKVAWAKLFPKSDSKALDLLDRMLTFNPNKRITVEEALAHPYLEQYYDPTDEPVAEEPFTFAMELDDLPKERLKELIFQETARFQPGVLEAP
Procedure: as §1

[7] = target: each specific kinase (kinase selectivity panel, Table 2) (Homo sapiens, UniProt O60285); test: as above; conditions: NUAK1
Chain of each specific kinase (kinase selectivity panel, Table 2) (Homo sapiens, UniProt O60285) (O60285 whole entry): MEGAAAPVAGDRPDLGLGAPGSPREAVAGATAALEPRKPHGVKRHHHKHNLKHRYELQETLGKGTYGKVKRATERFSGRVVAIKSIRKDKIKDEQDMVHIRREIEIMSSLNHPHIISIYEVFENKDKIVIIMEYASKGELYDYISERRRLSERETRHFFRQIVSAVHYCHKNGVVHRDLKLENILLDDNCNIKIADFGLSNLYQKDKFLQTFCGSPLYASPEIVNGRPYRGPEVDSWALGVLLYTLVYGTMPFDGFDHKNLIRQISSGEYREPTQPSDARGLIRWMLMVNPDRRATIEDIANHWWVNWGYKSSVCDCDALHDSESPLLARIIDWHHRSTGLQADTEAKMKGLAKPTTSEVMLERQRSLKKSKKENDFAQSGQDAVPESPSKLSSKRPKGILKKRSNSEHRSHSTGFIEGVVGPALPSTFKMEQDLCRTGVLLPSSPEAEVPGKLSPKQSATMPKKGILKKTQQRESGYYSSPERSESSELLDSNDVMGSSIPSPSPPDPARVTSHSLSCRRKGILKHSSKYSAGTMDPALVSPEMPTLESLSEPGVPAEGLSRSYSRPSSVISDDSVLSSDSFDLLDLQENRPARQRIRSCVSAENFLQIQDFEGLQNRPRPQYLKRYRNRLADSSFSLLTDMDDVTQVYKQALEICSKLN
Procedure: as §1

[8] = target: T1, LRRK2 wild type (recombinant human, catalytic domain amino acids 970-2527, GST-tagged) (Homo sapiens, UniProt Q5S007); test: LRRK2 wild type protein kinase assay ([γ-33P] ATP, peptide substrate […]), IC50; conditions: LRRK2 (variant not given); read-out: Potency score, LRRK2 IC50
T1 construct: The wild type used was recombinant human, catalytic domain (amino acids 970-2527) GST-tagged, expressed in insect cells; GST; purchased Invitrogen Corporation PV4873; host or cells: insect cells
T1 sequence (Q5S007 970-2527): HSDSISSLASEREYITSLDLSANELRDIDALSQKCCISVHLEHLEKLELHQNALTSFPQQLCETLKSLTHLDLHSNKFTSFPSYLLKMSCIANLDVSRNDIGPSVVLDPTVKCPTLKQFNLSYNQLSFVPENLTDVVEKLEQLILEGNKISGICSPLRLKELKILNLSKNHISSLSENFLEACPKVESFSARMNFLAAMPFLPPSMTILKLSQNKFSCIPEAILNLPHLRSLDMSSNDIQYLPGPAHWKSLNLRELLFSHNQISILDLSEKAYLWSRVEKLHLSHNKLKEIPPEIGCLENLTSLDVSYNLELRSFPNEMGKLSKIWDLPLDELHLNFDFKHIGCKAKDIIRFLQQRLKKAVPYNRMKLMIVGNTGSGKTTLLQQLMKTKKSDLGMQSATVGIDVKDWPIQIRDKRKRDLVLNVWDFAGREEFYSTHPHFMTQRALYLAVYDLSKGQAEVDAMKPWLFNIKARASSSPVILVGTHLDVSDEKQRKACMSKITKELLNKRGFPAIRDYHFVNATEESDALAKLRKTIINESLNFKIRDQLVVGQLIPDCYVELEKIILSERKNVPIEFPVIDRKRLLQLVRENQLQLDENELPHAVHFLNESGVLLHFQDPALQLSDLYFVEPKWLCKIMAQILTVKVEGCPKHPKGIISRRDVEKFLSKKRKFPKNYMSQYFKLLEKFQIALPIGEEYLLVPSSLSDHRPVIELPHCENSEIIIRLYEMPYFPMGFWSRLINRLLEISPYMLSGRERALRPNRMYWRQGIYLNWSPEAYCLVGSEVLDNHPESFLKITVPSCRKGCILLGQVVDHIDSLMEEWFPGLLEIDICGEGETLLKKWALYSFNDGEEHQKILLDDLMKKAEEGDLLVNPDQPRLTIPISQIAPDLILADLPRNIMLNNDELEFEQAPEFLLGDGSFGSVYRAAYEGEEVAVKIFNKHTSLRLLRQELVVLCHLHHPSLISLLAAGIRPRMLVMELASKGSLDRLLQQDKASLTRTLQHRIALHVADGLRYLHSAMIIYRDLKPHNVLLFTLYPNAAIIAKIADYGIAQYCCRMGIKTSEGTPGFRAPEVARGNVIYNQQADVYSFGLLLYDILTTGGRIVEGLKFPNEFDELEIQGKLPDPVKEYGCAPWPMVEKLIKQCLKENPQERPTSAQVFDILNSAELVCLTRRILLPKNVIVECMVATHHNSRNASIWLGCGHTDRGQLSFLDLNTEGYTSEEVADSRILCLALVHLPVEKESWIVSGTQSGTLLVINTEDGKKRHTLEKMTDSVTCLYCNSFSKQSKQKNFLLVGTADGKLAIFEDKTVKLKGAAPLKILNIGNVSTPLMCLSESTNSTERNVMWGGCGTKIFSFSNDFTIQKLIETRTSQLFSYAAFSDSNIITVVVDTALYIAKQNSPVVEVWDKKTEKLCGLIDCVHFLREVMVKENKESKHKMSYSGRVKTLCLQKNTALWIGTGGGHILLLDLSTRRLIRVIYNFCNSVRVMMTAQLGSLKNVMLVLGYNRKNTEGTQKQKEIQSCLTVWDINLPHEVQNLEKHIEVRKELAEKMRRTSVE
Summary of the method: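 Insect-cell-expressed enzyme (~5 nM), no activation, incubated 180 min at ~21 °C in 50 mM Tris-HCl pH 7.5, 0.1 mM EGTA, 1 mM DTT, 10 mM MgCl2 with 100 μM peptide substrate and [γ-33P]ATP. Reaction stopped with orthophosphoric acid, captured on P81 filters and counted; IC50 from 10 concentrations in duplicate.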

Chain of each specific kinase (kinase selectivity panel, Table 2) (Homo sapiens, UniProt O14965) (O14965 whole entry): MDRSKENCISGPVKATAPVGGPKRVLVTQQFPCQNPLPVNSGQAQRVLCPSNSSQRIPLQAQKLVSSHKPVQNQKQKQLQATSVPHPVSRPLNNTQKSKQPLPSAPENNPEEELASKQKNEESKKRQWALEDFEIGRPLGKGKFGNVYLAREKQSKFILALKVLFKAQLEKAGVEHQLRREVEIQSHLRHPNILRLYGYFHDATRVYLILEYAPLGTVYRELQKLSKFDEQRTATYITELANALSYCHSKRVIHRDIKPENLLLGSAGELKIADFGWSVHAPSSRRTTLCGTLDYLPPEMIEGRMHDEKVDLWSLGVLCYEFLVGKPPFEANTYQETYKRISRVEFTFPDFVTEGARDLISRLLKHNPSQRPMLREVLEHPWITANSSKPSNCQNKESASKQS

Compound | percentage inhibition of Aurora A [1] | percentage inhibition of PLK1 [2] | percentage inhibition of EPH-A2 [3] | percentage inhibition of JAK2 [4] | percentage inhibition of TTK [5] | percentage inhibition of ERK1 [6] | percentage inhibition of NUAK1 [7] | IC50 [8]
CC[C@H](C)Oc1nccc2[nH]nc(C)c12 [Example 121, 4-((S)-sec-Butoxy)-3-methyl-1H-pyrazolo[4,3-c]pyridine] | 46 percentage | 19 percentage | 8 percentage | 47 percentage | 30 percentage | 1 percentage | 59 percentage | < 100 nM
O=C(CCc1n[nH]c2ccnc(NC3CCCCC3)c12)N1CCC[C@H](c2ccccc2)C1 [Example 172, 3-(4-Cyclohexylamino-1H-pyrazolo[4,3-c]pyridin-3-yl)-1-((R)-3-phenyl-piperidin-1-yl)-propan-1-one] | 0 percentage | 3 percentage | 0 percentage | 12 percentage | 14 percentage | 0 percentage | 14 percentage | < 100 nM
